Our source for the IC50 and EC50 values is patent US20250129069A1, “TRIAZOLO WRN INHIBITORS” (Nimbus Wadjet, Inc., priority 2023, published 2025).

Structures are written as SMILES. Like-named read-outs stand apart in the source and are kept apart here.

The target of test [1] is human Werner helicase (WRN, amino acids 517-1235 with L1074F point mutation) (Homo sapiens (Human), UniProt Q14191, L1074F). Kind of test: WRN (BV08) ADP-Glo assay. The class given is biochemical. The following applies: human WRN (aa 517-1235, L1074F), read-out: ADP-Glo_hWRN_IC50. An outline of the steps: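 ADP-Glo luminescence read after 60 min, 25 °C reaction of 0.15 nM WRN (517-1235, L1074F, Sf9-expressed, tag removed) with 0.1 nM DNA duplex and 5 μM ATP, following 15 min compound preincubation; 20 mM Bicine pH 7.5, 1% DMSO. IC50 from 3- or 4-parameter fit of % inhibition.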

Test [2] deals with p21 induction in HCT 116 cells. Kind of test: p21 induction in cells (In-Cell Western, p21/GAPDH ratio). The following applies: 24 h compound incubation, read-out: p21_EC50. The class given is cell-based. Summed up: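 EC50 values come from nonlinear fits of percent activation, defined by the 800/700 nm p21-to-GAPDH ratio scaled between DMSO (low) and internal WRN inhibitor (high) controls. In-Cell Western read after 24 h compound exposure of HCT 116 cells at 37° C. Duplicate 11-point series, 2-fold steps, usually starting at 10 μM.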

Chain of human Werner helicase (WRN, amino acids 517-1235 with L1074F point mutation) (Q14191 other isoform, or with tags, fused parts or gaps L1074F (already in the parent)): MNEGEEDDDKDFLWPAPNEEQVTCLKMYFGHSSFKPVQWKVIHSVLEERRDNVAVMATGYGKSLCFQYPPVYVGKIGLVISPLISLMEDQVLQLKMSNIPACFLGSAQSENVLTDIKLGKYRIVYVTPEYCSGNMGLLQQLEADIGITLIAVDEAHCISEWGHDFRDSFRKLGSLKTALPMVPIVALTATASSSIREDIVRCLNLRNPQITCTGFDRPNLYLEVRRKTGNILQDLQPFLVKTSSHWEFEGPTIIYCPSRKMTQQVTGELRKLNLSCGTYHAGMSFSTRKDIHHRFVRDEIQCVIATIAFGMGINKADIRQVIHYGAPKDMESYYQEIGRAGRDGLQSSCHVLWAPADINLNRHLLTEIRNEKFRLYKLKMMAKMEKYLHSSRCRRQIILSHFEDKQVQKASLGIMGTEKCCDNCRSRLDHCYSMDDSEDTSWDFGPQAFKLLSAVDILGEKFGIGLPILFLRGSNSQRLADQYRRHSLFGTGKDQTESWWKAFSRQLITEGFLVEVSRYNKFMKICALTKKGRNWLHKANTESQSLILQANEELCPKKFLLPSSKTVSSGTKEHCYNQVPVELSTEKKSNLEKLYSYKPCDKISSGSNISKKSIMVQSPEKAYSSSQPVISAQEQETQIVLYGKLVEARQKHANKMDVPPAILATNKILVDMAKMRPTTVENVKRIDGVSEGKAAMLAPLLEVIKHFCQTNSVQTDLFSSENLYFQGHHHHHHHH

Regarding `CCc1c(N2CCN(C(=O)c3c(OC)ncc(C)c3O)[C@H]3CC[C@@H]32)c(=O)c2nn(-c3ccnc(C)c3)nc2n1CC(=O)NC12CC(C(C)C)(C1)C2` [Compound I-94, 2-{5-ethyl-6-[(1S,6S)-5-(4-hydroxy-2-methoxy-5-methylpyridine-3-carbonyl)-2,5-diazabicyclo[4.2.0]octan-2-yl]-2-(2-methylpyridin-4-yl)-7-oxo-2H,4H,7H-[1,2,3]triazolo[4,5-b]pyridin-4-yl}-N-[3-(propan-2-yl)bicyclo[1.1.1]pentan-1-yl]acetamide], in test [1], the IC50 is 5 to 50 nM. Also, the EC50 in test [2] (Homo sapiens) is ≤ 500 nM.

On to `CCc1c(N2CCN(C(=O)c3c(OC)ncc(C)c3O)[C@H]3CC[C@@H]32)c(=O)c2nn(-c3ccnc(C)c3)nc2n1CC(=O)Nc1ccc(C(F)(F)F)cc1F` [Compound I-95, 2-{5-ethyl-6-[(1S,6S)-5-(4-hydroxy-2-methoxy-5-methylpyridine-3-carbonyl)-2,5-diazabicyclo[4.2.0]octan-2-yl]-2-(2-methylpyridin-4-yl)-7-oxo-2H,4H,7H-[1,2,3]triazolo[4,5-b]pyridin-4-yl}-N-[2-fluoro-4-(trifluoromethyl)phenyl]acetamide], for which, in test [1], the IC50 is ≤ 5 nM. The EC50 in test [2] (Homo sapiens) is ≤ 500 nM.

For `CCc1c(N2CCN(C(=O)c3ncnc(C)c3O)[C@H]3CC[C@@H]32)c(=O)c2nn(-c3ccnc(C)c3)nc2n1CC(=O)Nc1ccc(C(F)(F)F)cc1Cl` [Compound I-96, N-[2-chloro-4-(trifluoromethyl)phenyl]-2-{5-ethyl-6-[(1S,6S)-5-(5-hydroxy-6-methylpyrimidine-4-carbonyl)-2,5-diazabicyclo[4.2.0]octan-2-yl]-2-(2-methylpyridin-4-yl)-7-oxo-2H,4H,7H-[1,2,3]triazolo[4,5-b]pyridin-4-yl}acetamide], the IC50 in test [1] is ≤ 5 nM. Moreover, the EC50 in test [2] is ≤ 500 nM.

As to `CCc1c(N2CCN(C(=O)c3c(OC)ncc(C)c3O)CC2)c(=O)c2nn(C3=CCOCC3)nc2n1CC(=O)NC12CC(C3CC3)(C1)C2` [Compound I-97, N-{3-cyclopropylbicyclo[1.1.1]pentan-1-yl}-2-[2-(3,6-dihydro-2H-pyran-4-yl)-5-ethyl-6-[4-(4-hydroxy-2-methoxy-5-methylpyridine-3-carbonyl)piperazin-1-yl]-7-oxo-2H,4H,7H-[1,2,3]triazolo[4,5-b]pyridin-4-yl]acetamide], in test [1], the IC50 was in the range of 5 to 50 nM. Further, the EC50 in test [2] (Homo sapiens) was ≤ 500 nM.

On to `CCOc1ncc(C)c(O)c1C(=O)N1CCN(c2c(CC)n(CC(=O)NC34CC(C(C)C)(C3)C4)c3nn(-c4ccnc(OC)c4)nc3c2=O)CC1` [Compound I-98, 2-{6-[4-(2-ethoxy-4-hydroxy-5-methylpyridine-3-carbonyl)piperazin-1-yl]-5-ethyl-2-(2-methoxypyridin-4-yl)-7-oxo-2H,4H,7H-[1,2,3]triazolo[4,5-b]pyridin-4-yl}-N-[3-(propan-2-yl)bicyclo[1.1.1]pentan-1-yl]acetamide], for which, in test [1], the IC50 fell in the range of 5 to 50 nM. Further, the EC50 in test [2] (Homo sapiens) is ≤ 500 nM.

For the compound `CCc1c(N2CCN(C(=O)c3c(OC)ncc(C)c3O)CC2)c(=O)c2nn(-c3ccnc(OC)c3)nc2n1CC(=O)NC1CC2(CCCC2)C1` [Compound I-99, 2-{5-ethyl-6-[4-(4-hydroxy-2-methoxy-5-methylpyridine-3-carbonyl)piperazin-1-yl]-2-(2-methoxypyridin-4-yl)-7-oxo-2H,4H,7H-[1,2,3]triazolo[4,5-b]pyridin-4-yl}-N-{spiro[3.4]octan-2-yl}acetamide], the IC50 in test [1] lay in the range of 5 to 50 nM. Moreover, the EC50 in test [2] (Homo sapiens) fell in the range of 500 to 2000 nM.

Consider `CCc1c(N2CCN(C(=O)c3c(OC)ncc(C)c3O)[C@H]3CC[C@@H]32)c(=O)c2nn(-c3ccnc(C)c3)nc2n1CC(=O)Nc1ccc(C(F)(F)F)cc1Cl` [Compound I-100, N-[2-chloro-4-(trifluoromethyl)phenyl]-2-{5-ethyl-6-[(1S,6S)-5-(4-hydroxy-2-methoxy-5-methylpyridine-3-carbonyl)-2,5-diazabicyclo[4.2.0]octan-2-yl]-2-(2-methylpyridin-4-yl)-7-oxo-2H,4H,7H-[1,2,3]triazolo[4,5-b]pyridin-4-yl}acetamide], for which, in test [1], the IC50 fell in the range of 5 to 50 nM. The EC50 in test [2] (Homo sapiens) is ≤ 500 nM.

In the case of `CCc1c(N2CCN(C(=O)c3ncnc(C)c3O)CC2)c(=O)c2nn(-c3ccccn3)nc2n1CC(=O)NC12CC(C(C)C)(C1)C2` [Compound I-101, 2-{5-ethyl-6-[4-(5-hydroxy-6-methylpyrimidine-4-carbonyl)piperazin-1-yl]-7-oxo-2-(pyridin-2-yl)-2H,4H,7H-[1,2,3]triazolo[4,5-b]pyridin-4-yl}-N-[3-(propan-2-yl)bicyclo[1.1.1]pentan-1-yl]acetamide], the IC50 in test [1] lay within 5 to 50 nM. In addition, in test [2] (Homo sapiens), the EC50 lay in the range of 500 to 2000 nM.

For the compound `CCc1c(N2CCN(C(=O)c3c(OC)ncc(C)c3O)[C@H]3CC[C@@H]32)c(=O)c2nn(-c3ccnc(OC)c3)nc2n1CC(=O)Nc1ccc(C(F)(F)F)cc1F` [Compound I-102, 2-{5-ethyl-6-[(1S,6S)-5-(4-hydroxy-2-methoxy-5-methylpyridine-3-carbonyl)-2,5-diazabicyclo[4.2.0]octan-2-yl]-2-(2-methoxypyridin-4-yl)-7-oxo-2H,4H,7H-[1,2,3]triazolo[4,5-b]pyridin-4-yl}-N-[2-fluoro-4-(trifluoromethyl)phenyl]acetamide], in test [1], the IC50 was ≤ 5 nM. Moreover, the EC50 in test [2] (Homo sapiens) was ≤ 500 nM.

On to `CCc1c(N2CCN(C(=O)c3c(OC)ncc(C)c3O)CC2)c(=O)c2nn(-c3ccnc(OC)c3)nc2n1CC(=O)NC1CC2(CC(C)C2)C1` (centres unmarked) [Compound I-103, 2-{5-ethyl-6-[4-(4-hydroxy-2-methoxy-5-methylpyridine-3-carbonyl)piperazin-1-yl]-2-(2-methoxypyridin-4-yl)-7-oxo-2H,4H,7H-[1,2,3]triazolo[4,5-b]pyridin-4-yl}-N-{6-methylspiro[3.3]heptan-2-yl}acetamide], for which, in test [1], the IC50 lay within 5 to 50 nM. In addition, the EC50 in test [2] (Homo sapiens) lay within 2000 to 5000 nM.

As to `CCc1c(N2CCN(C(=O)c3c(OC)ncc(C)c3O)CC2)c(=O)c2nn(-c3ccnc(OC)c3)nc2n1CC(=O)NC1CC2(C1)CC(F)(F)C2` [Compound I-104, N-{6,6-difluorospiro[3.3]heptan-2-yl}-2-{5-ethyl-6-[4-(4-hydroxy-2-methoxy-5-methylpyridine-3-carbonyl)piperazin-1-yl]-2-(2-methoxypyridin-4-yl)-7-oxo-2H,4H,7H-[1,2,3]triazolo[4,5-b]pyridin-4-yl}acetamide], the IC50 in test [1] was in the range of 50 to 100 nM. The EC50 in test [2] (Homo sapiens) is > 5000 nM.

With `CCc1c(N2CCN(C(=O)c3c(OC)ncc(C)c3O)CC2)c(=O)c2nn(-c3ccnc(OC)c3)nc2n1CC(=O)NC1CC2(C1)CC(C)(C)C2` [Compound I-105, N-{6,6-dimethylspiro[3.3]heptan-2-yl}-2-{5-ethyl-6-[4-(4-hydroxy-2-methoxy-5-methylpyridine-3-carbonyl)piperazin-1-yl]-2-(2-methoxypyridin-4-yl)-7-oxo-2H,4H,7H-[1,2,3]triazolo[4,5-b]pyridin-4-yl}acetamide], the IC50 in test [1] was in the range of 5 to 50 nM. Moreover, the EC50 in test [2] (Homo sapiens) is > 5000 nM.

Consider `CCc1c(N2CCN(C(=O)c3c(OC)ncc(C)c3O)CC2)c(=O)c2nn(-c3ccnc(OC)c3)nc2n1CC(=O)NC1CC2(CCC(F)(F)CC2)C1` [Compound I-106, N-{7,7-difluorospiro[3.5]nonan-2-yl}-2-{5-ethyl-6-[4-(4-hydroxy-2-methoxy-5-methylpyridine-3-carbonyl)piperazin-1-yl]-2-(2-methoxypyridin-4-yl)-7-oxo-2H,4H,7H-[1,2,3]triazolo[4,5-b]pyridin-4-yl}acetamide], for which the IC50 in test [1] lay within 5 to 50 nM. Besides, in test [2] (Homo sapiens), the EC50 was > 5000 nM.

On to `CCc1c(N2CCN(C(=O)c3cccc4ncoc34)[C@H]3CC[C@@H]32)c(=O)c2nn(-c3ccnc(OC)c3)nc2n1CC(=O)Nc1ccc(C(F)(F)F)cc1Cl` [Compound I-107, 2-{6-[(1S,6S)-5-(1,3-benzoxazole-7-carbonyl)-2,5-diazabicyclo[4.2.0]octan-2-yl]-5-ethyl-2-(2-methoxypyridin-4-yl)-7-oxo-2H,4H,7H-[1,2,3]triazolo[4,5-b]pyridin-4-yl}-N-[2-chloro-4-(trifluoromethyl)phenyl]acetamide], for which, in test [1], the IC50 lay in the range of 5 to 50 nM. For the same compound, the EC50 in test [2] (Homo sapiens) is ≤ 500 nM.

For `CCc1c(N2CCN(C(=O)c3cccc4ncoc34)[C@H]3CC[C@@H]32)c(=O)c2nn(-c3ccnc(OC)c3)nc2n1CC(=O)NC12CC(C(C)C)(C1)C2` [Compound I-108, 2-{6-[(1S,6S)-5-(1,3-benzoxazole-7-carbonyl)-2,5-diazabicyclo[4.2.0]octan-2-yl]-5-ethyl-2-(2-methoxypyridin-4-yl)-7-oxo-2H,4H,7H-[1,2,3]triazolo[4,5-b]pyridin-4-yl}-N-[3-(propan-2-yl)bicyclo[1.1.1]pentan-1-yl]acetamide], in test [1], the IC50 lay in the range of 5 to 50 nM. Further, the EC50 in test [2] (Homo sapiens) was 500 to 2000 nM.

As for `CCc1c(N2CCN(C(=O)c3ncc4c(c3O)OCC4)CC2)c(=O)c2nn(C3=CCOCC3)nc2n1CC(=O)Nc1ccc(C(F)(F)F)cc1Cl` [Compound I-109, N-[2-chloro-4-(trifluoromethyl)phenyl]-2-[2-(3,6-dihydro-2H-pyran-4-yl)-5-ethyl-6-(4-{7-hydroxy-2H,3H-furo[3,2-c]pyridine-6-carbonyl}piperazin-1-yl)-7-oxo-2H,4H,7H-[1,2,3]triazolo[4,5-b]pyridin-4-yl]acetamide], in test [1], the IC50 is ≤ 5 nM. In test [2] (Homo sapiens), the EC50 is ≤ 500 nM.
